This passage reports DC50 and Y results from US12103920B2, “Cereblon binding compounds, compositions thereof, and methods of treatment therewith” (Celgene Corporation, priority 2020, dated 2024).

Structures can show the parent of a compound that is named as a salt.

For the assay, the target named is T1, AR protein in VCaP cells (Homo sapiens, UniProt P10275).
T1 construct: endogenous in cells; host or cells: VCaP cells
T1 sequence (P10275 1-920): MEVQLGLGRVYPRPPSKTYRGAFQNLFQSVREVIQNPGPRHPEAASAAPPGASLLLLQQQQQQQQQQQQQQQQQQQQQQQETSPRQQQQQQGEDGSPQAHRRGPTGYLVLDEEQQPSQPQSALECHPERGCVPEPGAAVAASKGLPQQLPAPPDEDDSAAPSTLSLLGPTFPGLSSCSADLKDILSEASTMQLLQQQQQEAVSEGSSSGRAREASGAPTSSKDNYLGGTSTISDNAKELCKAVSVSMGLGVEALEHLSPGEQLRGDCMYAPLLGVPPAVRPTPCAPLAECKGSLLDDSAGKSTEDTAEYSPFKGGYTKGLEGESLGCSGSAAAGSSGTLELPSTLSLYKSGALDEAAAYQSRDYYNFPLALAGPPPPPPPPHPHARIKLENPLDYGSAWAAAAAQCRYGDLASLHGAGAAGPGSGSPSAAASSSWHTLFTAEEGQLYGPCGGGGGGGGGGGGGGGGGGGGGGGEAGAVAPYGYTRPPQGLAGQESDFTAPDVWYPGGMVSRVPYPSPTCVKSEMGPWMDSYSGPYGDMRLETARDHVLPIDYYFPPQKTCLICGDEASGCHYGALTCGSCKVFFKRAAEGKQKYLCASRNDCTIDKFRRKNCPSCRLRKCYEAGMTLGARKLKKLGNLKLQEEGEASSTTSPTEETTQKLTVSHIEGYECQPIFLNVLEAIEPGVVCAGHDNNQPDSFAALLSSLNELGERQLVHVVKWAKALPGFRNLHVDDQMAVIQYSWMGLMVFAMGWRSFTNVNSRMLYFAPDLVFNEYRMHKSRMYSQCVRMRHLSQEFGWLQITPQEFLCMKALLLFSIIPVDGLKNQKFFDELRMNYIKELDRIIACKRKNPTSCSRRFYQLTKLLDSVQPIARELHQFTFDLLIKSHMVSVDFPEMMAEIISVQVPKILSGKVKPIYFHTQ
The experiment in a line: VCAP AR Degradation Assay. It is filed as cell-based. The following applies: 24 h, AR ELISA; for DC50: concentration at 50% of DMSO control (50% AR degradation); for Y: lowest measured AR level normalized to DMSO control. The procedure:
VCAP AR Degradation Assay. Test compounds were pre-dispensed into a Corning CellBind 96-well clear bottom plate (Cat #3300) using an acoustic dispenser to make a 10-point concentration series at 1:3 dilution for each compound. The final top concentration of each compound was 5 μM. DMSO at a final concentration of 0.1% was used as a control. VCaP cells cultured in DMEM with 8% fetal bovine serum (FBS) were seeded at 50K cells per well in a 200 μL volume into the compound plate and incubated at 37° C. in a CO2 incubator for 24 h. The medium was carefully removed from the cells and the plate was placed on ice. One hundred μL of ice-cold 1× cell lysis buffer from Cell Signaling Technologies (Cat #9803) was added to each well of the cells and the plate was incubated at 4° C. on a shaker for 1 h. Fifteen μL of cell lysate was used for AR ELISA detection using a PathScan Total Sandwich AR ELISA kit (Cell Signaling Technology, Cat #12580). AR levels in compound-treated wells were normalized to that of DMSO control and expressed as percent of control (PoC) (y). A Four Parameter Logistic Model (Sigmoidal Dose-Response Model) was used to determine the compound's DC50, and EC50, using the following equation: y=(A+((B−A)/(1+((C/x)^D)))) • A=YMin (lowest AR level normalized to DMSO control in response to compound treatment, as determined by curve fit) • B=YMax (maximum AR level as determined by curve fit) • C=EC50 • D=Hill Slope • x=compound concentration • EC50=the concentration of compound when y=(YMax−YMin)/2 • DC50=the concentration of the compound when y=50% of DMSO control (50% AR degradation) • y=AR protein level normalized to DMSO control
The lowest measured AR level normalized to DMSO control in response to compound treatment, termed Y value, was used to characterize the compound-mediated AR degradation efficiency.
For orientation: An ELISA detects its analyte on a solid surface through an enzyme-linked reagent.

Consider `CC1(C)C(=O)N(c2cnc(C#N)c(C(F)(F)F)c2)C(=S)N1[C@H]1CC[C@H](OCCN2CCN(CC(=O)Nc3cccc(N[C@@H]4CCC(=O)NC4=O)c3)[C@@H](C(F)(F)F)C2)CC1` [Cmpd 42, 2-((R)-4-(2-(((trans)-4-(3-(6-Cyano-5-(trifluoromethyl)pyridin-3-yl)-5,5-dimethyl-4-oxo-2-thioxoimidazolidin-1-yl)cyclohexyl)oxy)ethyl)-2-(trifluoromethyl)piperazin-1-yl)-N-(3-(((R)-2,6-dioxopiperidin-3-yl)amino)phenyl)acetamide hydrochloride], for which the DC50 was not above 5 nM and the Y entry is “* (0<Y≤15%)”.
For `C[C@@H]1CN(CCC[C@H]2CC[C@H](N3C(=S)N(c4ccc(C#N)c(C(F)(F)F)c4)C(=O)C3(C)C)CC2)C[C@H](C)N1CC(=O)Nc1cccc(N[C@H]2CCC(=O)NC2=O)c1` [Cmpd 18, 2-((2R,6S)-4-(3-(trans-4-(3-(4-Cyano-3-(trifluoromethyl)phenyl)-5,5-dimethyl-4-oxo-2-thioxoimidazolidin-1-yl)cyclohexyl)propyl)-2,6-dimethylpiperazin-1-yl)-N-(3-(((S)-2,6-dioxopiperidin-3-yl)amino)phenyl)acetamide], in that order: 10 to 100 nM and “** (15%<Y≤20%)”.
`C[C@@H]1CN(CCCO[C@H]2CC[C@H](N3C(=S)N(c4cnc(C#N)c(C(F)(F)F)c4)C(=O)C3(C)C)CC2)C[C@H](C)N1CC(=O)Nc1cccc(NC2CCC(=O)NC2=O)c1` (stereo partly drawn) [Cmpd 10, 2-((2R,6S)-4-(3-((trans-4-(3-(6-Cyano-5-(trifluoromethyl)pyridin-3-yl)-5,5-dimethyl-4-oxo-2-thioxoimidazolidin-1-yl)cyclohexyl)oxy)propyl)-2,6-dimethylpiperazin-1-yl)-N-(3-((2,6-dioxopiperidin-3-yl)amino)phenyl)acetamide hydrochloride]: the DC50 is not above 5 nM and the Y result is “** (15%<Y≤20%)”.
The matching figures for `C[C@@H]1CN(CCC[C@H]2CC[C@H](N3C(=S)N(c4ccc(C#N)c(C(F)(F)F)c4)C(=O)C3(C)C)CC2)C[C@H](C)N1CC(=O)Nc1cc(F)cc(NC2CCC(=O)NC2=O)c1` (stereo partly drawn) [Cmpd 38, 2-((2R,6S)-4-(3-((trans)-4-(3-(4-Cyano-3-(trifluoromethyl)phenyl)-5,5-dimethyl-4-oxo-2-thioxoimidazolidin-1-yl)cyclohexyl)propyl)-2,6-dimethylpiperazin-1-yl)-N-(3-((2,6-dioxopiperidin-3-yl)amino)-5-fluorophenyl)acetamide]: 5 to 10 nM and “* (0<Y≤15%)”.
For `C[C@@H]1C[C@H](OCCO[C@H]2CC[C@H](N3C(=S)N(c4ccc(C#N)c(C(F)(F)F)c4)C(=O)C3(C)C)CC2)C[C@H](C)N1CC(=O)Nc1cccc(NC2CCC(=O)NC2=O)c1` (stereo partly drawn) [Cmpd 43, 2-((2R,4r,6S)-4-(2-(((trans)-4-(3-(4-Cyano-3-(trifluoromethyl)phenyl)-5,5-dimethyl-4-oxo-2-thioxoimidazolidin-1-yl)cyclohexyl)oxy)ethoxy)-2,6-dimethylpiperidin-1-yl)-N-(3-((2,6-dioxopiperidin-3-yl)amino)phenyl)acetamide], in that order: 5 to 10 nM and “*** (25%<Y<50%)”.
The matching figures for `C[C@@H]1C[C@@H](CCO[C@H]2CC[C@H](N3C(=S)N(c4ccc(C#N)c(C(F)(F)F)c4)C(=O)C3(C)C)CC2)C[C@H](C)N1CC(=O)Nc1cccc(NC2CCC(=O)NC2=O)c1` (stereo partly drawn) [Cmpd 15, 2-((2R,4s,6S)-4-(2-((trans-4-(3-(4-Cyano-3-(trifluoromethyl)phenyl)-5,5-dimethyl-4-oxo-2-thioxoimidazolidin-1-yl)cyclohexyl)oxy)ethyl)-2,6-dimethylpiperidin-1-yl)-N-(3-((2,6-dioxopiperidin-3-yl)amino)phenyl)acetamide hydrochloride]: 5 to 10 nM and “* (0<Y≤15%)”.

Usually DC50 stands for the midpoint of the concentration-degradation curve. The low end stands for degradation at low concentration, the high end for degradation only at high concentration.
